According to US20110081429A1, “COMPOSITION FOR EXTERNAL USE” (priority 2008, published 2011):
“Also recorded” adds a separate entry of the source.

Tested on: IGF-1 secretion in the skin
Assay: IGF-1 concentration in the skin after application of essential oil and/or AMP (Experimental Example 1)
Type: in vivo, hairless mice (Hos: HR-1)
Settings: hairless mice, 400 μl on back skin (3 cm×5 cm), 30 minutes after the application; FIG. 1a-1c
Experimental: In order to examine how the effect of essential oils on the amount of IGF-1 secretion in the skin is affected by AMP, the following compositions containing an essential oil and AMP (Examples 1 to 3 and Comparative Examples 1 to 5) were prepared by a standard method. The pH of each composition was adjusted with NaOH such that the pH ranged from 6.5 to 7.0.
400 μl of a test solution was applied to the skin on the back (3 cm×5 cm) of hairless mice (Hos: HR-1, Japan SLC, Inc., female, 6 to 8 weeks age). 30 minutes after the application, the skin was extracted and frozen-crushed. Then, the IGF-1 concentration in the skin was measured using Quantikine (registered trademark) Mouse IGF-1 Immunoassay (R&D Systems, Inc.).
The composition shown in Table 1 was used as a test solution.
The secreted IGF-1 concentration was measured according to the method described in Experiment 1-1. The composition shown in Table 1 above was used as a test solution.

Nc1ncnc2c1ncn2[C@@H]1O[C@H](COP(=O)(O)O)[C@@H](O)[C@H]1O [AMP, adenosine-5′-monophosphate]
stimulatory effect on IGF-1 secretion (IGF-1 concentration in the skin): did not produce a stimulatory effect on IGF-1 secretion when used alone; also recorded: neither AMP or Scotch pine needle oil stimulated IGF-1 secretion when used alone; also recorded: did not produce a sufficient stimulatory effect on IGF-1 secretion
